Patent publication US5232923A, “Catechol derivatives and pharmaceutical preparations containing same” (Mitsui Toatsu Chemicals, Incorporated, priority 1988, dated 1993)

Test system: production and secretion of NGF in mouse L-M cells
Assay: Promoting activity for the production and secretion of NGF in mouse L-M cells (ELISA of medium after 24 h)
Format: cell-based
Conditions: Mus musculus, 24 h; Table 1; L-M cells; sample concentration 0.2 mM; fold increase over control (1.00); read-out: NGF Increase Ratio
Protocol: Promoting activity for the production and secretion of NGF in mouse L-M cells
The medium was cultured for 3 days at a temperature of 37° C. […] The sample of the derivative tested is contained in the medium at a prescribed concentration as illustrated in the Tables. […] Data are expressed as fold increase in NGF content of the medium over that cultivated in the absence of the derivative to be tested. […] Data are presented as the mean of four determinations. The results are illustrated in Tables 1-5.

Point of comparison: `CCCCNCc1ccc(O)c(O)c1` [Compound 25], fold induction at 200 µM 8.82. Against it:
- CCC(=O)NCc1ccc(O)c(O)c1 [Compound 5] — lower, 8.33
- CCCC(=O)NCc1ccc(O)c(O)c1 [Compound 6] — higher, 8.94
- CCNCc1ccc(O)c(O)c1 [Compound 23] — higher, 9.33
- CCCC(=O)NCCCc1ccc(O)c(O)c1 [Compound 9] — lower, 8.33
- CCCNCc1ccc(O)c(O)c1 [Compound 24] — higher, 8.91
- CC(=O)NCc1ccc(O)c(O)c1 [Compound 4] — lower, 7.88
- CCCNCCCc1ccc(O)c(O)c1 [Compound 28] — lower, 8.45

Same assay, conditions: Mus musculus, 24 h; Table 2; L-M cells; sample concentration 0.2 mM; fold increase over control (1.00); read-out: NGF Increase Ratio

Point of comparison: `COC(=O)Cc1ccc(OC(C)=O)c(OC(C)=O)c1` [Compound 50], fold induction at 200 µM 5.09. Against it:
- CCCOC(=O)Cc1ccc(O)c(O)c1 [Compound 40] — higher, 5.41
- COC(=O)CCc1ccc(O)c(O)c1 [Compound 34] — higher, 5.79
- CCCOC(=O)CCCc1ccc(OC(C)=O)c(OC(C)=O)c1 [Compound 56] — the same, 5.09
- CCCOC(=O)CCc1ccc(OC(C)=O)c(OC(C)=O)c1 [Compound 48] — higher, 6.26
- COC(=O)CCCc1ccc(OC(C)=O)c(OC(C)=O)c1 [Compound 54] — higher, 5.53
- CC(=O)Oc1ccc(CCCC(N)=O)cc1OC(C)=O [Compound 78] — lower, 4.94
- CCCCOC(=O)Cc1ccc(O)c(O)c1 [Compound 41] — higher, 5.26
- CCCNC(=O)Cc1ccc(O)c(O)c1 [Compound 65] — higher, 5.21
- CNC(=O)CCCc1ccc(O)c(O)c1 [Compound 68] — the same, 5.09
- CCCCNC(=O)Cc1ccc(OC(C)=O)c(OC(C)=O)c1 [Compound 77] — higher, 5.26
- CC(=O)Oc1ccc(CC(N)=O)cc1OC(C)=O [Compound 75] — higher, 5.53
- CCCCOC(=O)CCCc1ccc(O)c(O)c1 [Compound 45] — higher, 5.41

Same assay, conditions: Table 1; L-M cells; sample concentration 0.2 mM; 24 hours; mean of four determinations; control 0.33

Point of comparison: `CCCCNCc1ccc(O)c(O)c1` [Compound 25], “NGF Concentration” value 2.91 ng/well. Against it:
- CCC(=O)NCc1ccc(O)c(O)c1 [Compound 5] — lower, 2.75 ng/well
- CCCC(=O)NCc1ccc(O)c(O)c1 [Compound 6] — higher, 2.95 ng/well
- CCNCc1ccc(O)c(O)c1 [Compound 23] — higher, 3.08 ng/well
- CCCC(=O)NCCCc1ccc(O)c(O)c1 [Compound 9] — lower, 2.75 ng/well
- CCCNCc1ccc(O)c(O)c1 [Compound 24] — higher, 2.94 ng/well
- CC(=O)NCc1ccc(O)c(O)c1 [Compound 4] — lower, 2.60 ng/well
- CCCNCCCc1ccc(O)c(O)c1 [Compound 28] — lower, 2.79 ng/well

Same assay, conditions: Table 2; L-M cells; sample concentration 0.2 mM; 24 hours; mean of four determinations; control 0.34

Point of comparison: `CCCCOC(=O)Cc1ccc(O)c(O)c1` [Compound 41], “NGF Concentration” value 1.79 ng/well. Against it:
- CCCOC(=O)Cc1ccc(O)c(O)c1 [Compound 40] — higher, 1.84 ng/well
- COC(=O)CCc1ccc(O)c(O)c1 [Compound 34] — higher, 1.97 ng/well
- CCCOC(=O)CCCc1ccc(OC(C)=O)c(OC(C)=O)c1 [Compound 56] — lower, 1.73 ng/well
- CCCOC(=O)CCc1ccc(OC(C)=O)c(OC(C)=O)c1 [Compound 48] — higher, 2.13 ng/well
- COC(=O)CCCc1ccc(OC(C)=O)c(OC(C)=O)c1 [Compound 54] — higher, 1.88 ng/well
- CC(=O)Oc1ccc(CCCC(N)=O)cc1OC(C)=O [Compound 78] — the same, 1.79 ng/well
- CCCNC(=O)Cc1ccc(O)c(O)c1 [Compound 65] — lower, 1.77 ng/well
- COC(=O)Cc1ccc(OC(C)=O)c(OC(C)=O)c1 [Compound 50] — lower, 1.73 ng/well
- CNC(=O)CCCc1ccc(O)c(O)c1 [Compound 68] — lower, 1.73 ng/well
- CCCCNC(=O)Cc1ccc(OC(C)=O)c(OC(C)=O)c1 [Compound 77] — higher, 1.86 ng/well
- CC(=O)Oc1ccc(CC(N)=O)cc1OC(C)=O [Compound 75] — higher, 2.03 ng/well
- CCCCOC(=O)CCCc1ccc(O)c(O)c1 [Compound 45] — higher, 1.84 ng/well
